# Experimental data published in US5157019A, “Serine protease inhibitors” (Monsanto Company, priority 1991, dated 1992).
# Ends that are not written are not given here.
# Legend:
# Cathepsin G = molecular target: T1, Cathepsin G (Homo sapiens, UniProt P08311); test: Cathepsin G assay (Suc-Ala-Ala-Pro-Phe-pNA, 410 nm); type: biochemical
# T1 construct: purchased Elastin Products Company (EPC) SG-45
# T1 sequence (P08311 21-255): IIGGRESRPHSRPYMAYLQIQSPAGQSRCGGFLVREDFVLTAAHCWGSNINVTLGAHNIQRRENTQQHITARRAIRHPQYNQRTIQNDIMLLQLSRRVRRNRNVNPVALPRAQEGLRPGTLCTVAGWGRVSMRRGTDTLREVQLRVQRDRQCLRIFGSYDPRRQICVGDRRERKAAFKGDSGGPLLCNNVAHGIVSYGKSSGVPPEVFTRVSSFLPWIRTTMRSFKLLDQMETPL
# Protocol: Reference: Elastin Products Company (EPC) technical data sheet, cathepsin G, No. SG-45.
# Method: Spectrophotometric rate determination
# A) Buffer; 0.1M Tris, pH 7.5 at 25° C.
# B) Substrate; 60 mM Suc-Ala-Ala-Pro-Phe-pNA obtained from Sigma Chemical Company. Solution prepared by dissolving 50 mg substrate in 1.3 ml of 1-methyl-2-pyrrolidinone. Stored at 5° C.
# C) Peptide Inhibitors; 200 μM HCl salt. Depending on peptide solubility, dissolved in buffer or DMSO and then buffer added for a final concentration of 10% DMSO.
# D) Enzyme; Cathepsin G, EPC SG-45, lot 85117 used for all assays, 0.0077 mg protein per mg solid determined by supplier by Bradford method. Enzyme was dissolved in buffer at a concentration of approx. 5 mg/ml solid. Solution stored on ice, used within 2 hours.
# Pipetted the following into semi-micro quartz cuvettes: 0.3 ml buffer, 0.15 ml peptide solution and 0.5 ml of substrate solution. Equilibrate for 5 min. at 25° C., then add 0.05 ml of enzyme solution and monitor the release of pNA spectrophotometrically at 410 nm for at least 3 minutes. The controls contain either 0.45 ml of buffer or 20% DMSO in buffer (for a final concentration of 10% DMSO).
# The rate (O.D./min) is obtained as an average over 3 minutes. [formula]
# C1s = molecular target: T2, C1s (Homo sapiens, UniProt P09871); test: C1s assay by inhibition of fluid phase C4 activation; type: biochemical; settings: Table X; μM concentration at which protease was inhibited 50%; read-out: IC50 C1S
# T2 construct: prepared from pooled human plasma; from tissue; host or cells: pooled human plasma
# T2 sequence (P09871 16-688): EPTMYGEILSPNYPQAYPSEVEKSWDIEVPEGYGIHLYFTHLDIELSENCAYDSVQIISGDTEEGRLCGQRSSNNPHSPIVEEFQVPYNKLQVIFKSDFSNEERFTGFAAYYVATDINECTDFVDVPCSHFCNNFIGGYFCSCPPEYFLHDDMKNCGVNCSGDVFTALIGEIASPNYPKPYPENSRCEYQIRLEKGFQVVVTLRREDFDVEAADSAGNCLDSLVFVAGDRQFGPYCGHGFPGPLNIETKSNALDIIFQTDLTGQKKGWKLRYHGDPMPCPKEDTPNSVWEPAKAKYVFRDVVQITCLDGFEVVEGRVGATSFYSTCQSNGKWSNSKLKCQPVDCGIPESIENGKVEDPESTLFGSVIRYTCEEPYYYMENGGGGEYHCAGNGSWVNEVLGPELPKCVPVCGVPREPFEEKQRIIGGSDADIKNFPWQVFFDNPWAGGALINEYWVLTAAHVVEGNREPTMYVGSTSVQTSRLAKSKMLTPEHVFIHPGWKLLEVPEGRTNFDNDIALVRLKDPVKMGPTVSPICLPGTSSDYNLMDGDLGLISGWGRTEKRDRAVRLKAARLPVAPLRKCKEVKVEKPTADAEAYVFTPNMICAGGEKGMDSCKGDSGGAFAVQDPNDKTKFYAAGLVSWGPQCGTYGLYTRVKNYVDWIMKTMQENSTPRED
# Protocol: (§1) Highly purified C3, C4, Factor D, Factor B, and C1s were prepared from pooled human plasma. Factors B and C4 were radiolabeled by periodate oxidation of sialic acid residues, followed by reduction with tritiated sodium borohydride. In a representative experiment, a solution of 1.2 mg of factor B in 1.8 ml of PBS was treated with 70 μl of 0.1M NaIO4. After 10 min incubation on ice, excess reagent was removed by filtration over "SEPHADEX®" which is a matrix for gel chromatography (1.0 cm×20 cm). To the protein pool was added 60 μl of NaB[^3 H]4 solution and incubated for 30 min on ice. Labeled protein was separated from excess reagent by desalting or dialysis. Human C4 was radiolabeled in the same manner. Radiolabeled proteins were stored at -70° C. in PBS. The specific radioactivity of ^3 H factor B was about 10,000 CPM/μg and that of ^3 H-C4 was 5,000 CPM/μg.
# The cleavage of C4 was studied by incubating 10 μg of tritiated C4 with 3-5 ng of C1s at 37° C. for 30 min in 100 μl of PBS (pH 7.10) containing different concentrations of inhibitor. The reaction was stopped by the addition of 2-mercaptoethanol. The extent of cleavage was analyzed by SDS-polyacrylamide gel electrophoresis. The stained bands corresponding to C4α and C4α' were cut out and sliced. The radioactivity of the fragments was measured by liquid scintillation counting. The percent cleavage of the reaction was calculated as follows: [formula]
# (§2) Electrophoresis was carried out under reducing conditions in the Laemmli system using slab gel of 8% polyacrylamide. The gels were stained and destained (Fairbanks et al. Biochemistry (1971) 10:2606).
# (§3) The percent inhibition of the reaction was calculated according to the following relationship: [formula]
# (§4) A: % cleavage without inhibitor
# (§5) B: % cleavage with inhibitor
# (§6) The concentration inducing 50% inhibition was obtained by plotting the percent inhibition on a probability graph (National Blank Book Co., No. 12-083) on the ordinate and the log of the inhibitor concentration on the abscissa. From this graph, a 50% inhibition concentration IC50 was obtained and this value was employed to express the activity.
# Factor D = molecular target: T3, Factor D (Homo sapiens, UniProt P00746); test: Factor D assay by inhibition of fluid phase Factor B activation; type: biochemical; settings: Table X; μM concentration at which protease was inhibited 50%; read-out: IC50 D
# T3 construct: prepared from pooled human plasma; from tissue; host or cells: pooled human plasma
# T3 sequence (P00746 26-253): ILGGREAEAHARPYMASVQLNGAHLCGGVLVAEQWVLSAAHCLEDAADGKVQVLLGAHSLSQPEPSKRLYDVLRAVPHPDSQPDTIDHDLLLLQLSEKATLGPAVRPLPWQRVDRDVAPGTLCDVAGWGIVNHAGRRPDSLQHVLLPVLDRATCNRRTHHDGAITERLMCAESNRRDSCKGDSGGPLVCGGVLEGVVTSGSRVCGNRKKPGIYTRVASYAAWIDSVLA
# Protocol: as §1
# The effect of the peptides on Factor D-dependent cleavage of factor B was studied by incubating 3.5 μg of Factor B, 1.5 μg of C3(H2 O) and 0.2 μl of Factor D at 37° C. for 60 min in Mg-PBS containing different concentrations of inhibitor. Uncleaved Factor B and its fragments, Ba and Bb, were first separated by SDS-PAGE and analyzed as described above. The percent cleavage of the reaction was calculated as follows: [formula]
# B=radioactivity (CPM) of uncleaved factor B
# Bb=radioactivity (CPM) of fragment Bb
# Ba=radioactivity (CPM) of fragment Ba
# as §2, §3, §4, §5, §6
# Thrombin = Thrombin (Homo sapiens, UniProt P00734); test: Coagulation inhibition assay, thrombin (fibrinogen clotting end point); type: biochemical; settings: 40 μM peptide
# Protocol: Inhibitory activity of subject peptides toward thrombin and Factor Xa were done in the following manner. Mix 100 μL Thrombin (3.125 units/ml, 1.125 μg/ml) in TAB with […] Peptide in TAB and incubate for 1 minute at 37° C. Add 50 μL Fibrinogen (2 mg/ml)and measure clotting end point (in seconds) in a Fibrometer (BBL) TAB=Thrombin Assay Buffer: 0.15M NaCl, 6.6 gm/L PEG-6000, 0.01M Imidazole, 0.01 CaCl2, pH 7.4
# complement activation = test: Reverse passive arthus reaction (RPAR), histopathology of injection sites; type: in vivo, guinea pigs; design: key: 0 indicating no acute inflamation; 1 indication minimal acute inflammation; 2 indicating mild acute inflammation; 3 indicating moderate acute inflammation; settings: for Degree of inflammation, mean score, protease inhibitor only: guinea pig, intradermal injection of peptide without antibody
# Protocol: These exemplary peptide inhibitors (peptides 13, 7 and 27) were assayed for in vivo activity in inhibiting complement activation using the reverse passive arthus reaction (RPAR). RPAR is a model of complement-mediated damage due to activation via interaction with antigen/antibody complexes. Female guinea pigs (400 gm) were pretreated intracardially with bovine serum albumin and Evans blue dye. Ninety minutes later they received bilateral intradermal injections of peptide inhibitor or control material in the thoracolumbar region. Injection sites were excised postmortem and fixed in 10% buffered formalin for pathological evaluation. The peptides were administered to obtain an initial level of […] in the circulatory system.
# The histopathological results are outlined below. The degree of inflammation was scored as follows: 0 indicating no acute inflamation; 1 indication minimal acute inflammation; 2 indicating mild acute inflammation; and 3 indicating moderate acute inflammation.
# [1] = tested on: classical pathway of complement activation; test: Hemolytic assay, classical pathway (lysis of EA cells by normal human serum); type: cell-based; settings: 25 μM peptide
# Method: (§7) METHOD: Complement activation of the classical and alternative pathways is measured by lysis of EA and ER cells (respectively) after incubation with serum. Hemolysis is quantitated spectrophotometrically by the absorbance of hemoglobin at 415 nm.
# EA cells: Sheep erythrocyte-antibody conjugates stored at 10^9 cells/ml in DGVB (Veronal buffer plus Ca^++ and Mg,^++, 2.5% w/v dextrose and 0.05% w/v gelatin, 0.01% sodium azide)^1
# (§8) h NHS: Normal human serum incubated at 56° C. for 1 hour to inactivate complement components.
# (§9) B) Wash EA cell (classical pathway) and ER cell (alternative pathway) suspensions with at least an equal volume of PBS^++ (Phosphate buffered saline, with 0.15 mM Ca^++ and 0.5 mM Mg^++). Spin at 2000 rpm for 5 minutes, decant supernatant and resuspend cells. Wash cells twice or until supernatant is obviously clear of any lysed cellular debris.
# C) After the final wash, cells should be resuspended in an appropriate volume of PBS^++ so there are approximately 5×10^8 cells/ml. Dilute cell suspension 1:30 with distilled water and determine the absorbance at 541 nm spectrophotometrically. An adsorbance of 0.175 indicates 5×10^8 cells/ml. […]
# (§10) G) Read absorbance (Abs) of the supernatant at 415 nm to determine cell lysis. […]
# (§11) c) Dilute NHS and h NHS initially so that 100 ul of that dilution in a total of 250 μl will equal the final dilution calculated in the titer assay. […]
# [2] = tested on: alternative pathway of complement activation; test: Hemolytic assay, alternative pathway (lysis of ER cells by normal human serum); type: cell-based; settings: 25 μM peptide
# Method: as §7
# ER cells: Rabbit erythrocytes stored at 10^9 in Alsevers buffer, 0.01% sodium azide.^2
# as §8, §9
# C) After the final wash, cells should be resuspended in an appropriate volume of PBS^++ so there are approximately 5×10^8 cells/ml. Dilute cell suspension 1:30 with distilled water and determine the absorbance at 541 nm spectrophotometrically. An adsorbance of 0.175 indicates 5×10^8 cells/ml. Adjust the volume of the cell suspension accordingly with PBS^++ to get a final concentration of 2.5×10^8 cells/ml. […]
# as §10, §11
# HUMAN SPUTUM ELASTASE = molecular target: T4, HUMAN SPUTUM ELASTASE (Homo sapiens, UniProt P08246); test: Elastase assay (MeO-Suc-Ala-Pro-Val-pNA); type: biochemical; settings: 200 μM peptide
# T4 construct: HUMAN SPUTUM ELASTASE; purchased Elastin Products Company SE563; host or cells: human sputum (from the product name)
# T4 sequence (P08246 30-267): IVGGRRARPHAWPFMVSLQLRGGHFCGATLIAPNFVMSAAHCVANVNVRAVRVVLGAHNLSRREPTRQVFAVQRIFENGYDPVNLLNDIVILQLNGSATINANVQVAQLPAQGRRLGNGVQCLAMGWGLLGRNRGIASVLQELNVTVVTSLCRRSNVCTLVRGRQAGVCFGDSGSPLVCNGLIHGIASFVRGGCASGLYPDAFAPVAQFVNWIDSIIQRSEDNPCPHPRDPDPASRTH
# Protocol: Enzyme used is "HUMAN SPUTUM ELASTASE®" which is an enzyme which is the target protease for α1 antitrypsin from Elastin Products Company, Catalog No. SE563, lot 85071, 875 units/mg as determined by supplier with N-Suc-Ala-Ala-Ala-pNA; prepared at 0.2 mg/mL in 0.1M Tris·HCl, pH 8.8 at 37 degrees C. An amount of enzyme is used to give approximately 0.1 change in Absorbance/min; which in this assay was 1 μg.
# The substrate is MeO-Suc-Ala-Pro-Val-pNA, Sigma Catalog No. M-4765. About 50 mg of the substrate is dissolved in 1 ml of 1-methyl-2-pyrrolidinone and diluted to 33 mls. with 0.1M Tris-HCl, pH 7.5, containing 0.5M NaCl, and 0.01 wt % sodium azide.
# Peptide solutions are prepared at 500 μM, using 1.5% of the final volume of DMSO first and diluting with distilled water (DW) or 0.1M Tris.HCl, pH 8.8 at 37 degrees C. [formula]
# Plasmin = Plasmin (Homo sapiens, UniProt P00747); test: Plasmin assay (S2251); type: biochemical; settings: 200 μM peptide
# Sequence of Plasmin (P00747 581-810 limits assumed): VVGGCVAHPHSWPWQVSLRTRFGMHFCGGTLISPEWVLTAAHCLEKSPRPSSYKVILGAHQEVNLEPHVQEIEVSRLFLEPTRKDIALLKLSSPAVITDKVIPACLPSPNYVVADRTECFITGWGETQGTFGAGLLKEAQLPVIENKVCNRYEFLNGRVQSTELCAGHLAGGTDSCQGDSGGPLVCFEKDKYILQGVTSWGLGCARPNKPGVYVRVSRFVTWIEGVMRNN
# Sequence of Plasmin (P00747 97-580 partner limits assumed): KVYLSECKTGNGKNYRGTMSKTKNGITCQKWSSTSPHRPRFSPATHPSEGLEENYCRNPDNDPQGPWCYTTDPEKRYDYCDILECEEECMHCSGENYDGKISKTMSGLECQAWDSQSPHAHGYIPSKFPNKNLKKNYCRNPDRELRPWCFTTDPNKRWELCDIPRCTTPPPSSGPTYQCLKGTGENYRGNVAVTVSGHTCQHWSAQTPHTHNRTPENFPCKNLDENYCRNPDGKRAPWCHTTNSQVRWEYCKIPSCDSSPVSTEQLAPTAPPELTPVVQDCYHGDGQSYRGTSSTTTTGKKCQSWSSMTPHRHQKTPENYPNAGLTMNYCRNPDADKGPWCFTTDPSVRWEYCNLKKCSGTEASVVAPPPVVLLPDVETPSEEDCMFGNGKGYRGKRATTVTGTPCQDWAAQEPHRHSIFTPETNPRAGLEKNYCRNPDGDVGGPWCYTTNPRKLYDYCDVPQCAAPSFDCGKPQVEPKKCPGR
# Protocol: Substrate H-D-Val-Leu-Lys-pNA·HCl (S2251, Kabi), 10 mM in deionized water; may be frozen for future use.
# Buffer 50 mM Tris·HCl, pH 7.4 containing 0.01% Tween 80
# Inhibitor 400 μM in deionized water
# Enzyme Plasmin; 0.5 U/ml in buffer (Cat #P-4895, Sigma Chemical Co., St. Louis, Mo.)
# Mix 220 μL buffer, 200 μL deionized water (control) or inhibitor solution and 40 μL substrate. Incubate for 2 min at 37° C. Transfer 230 μL to a microcuvette, add 40 μL of enzyme, mix, and measure rate spectrophotometrically at 405 nm for about 5 min. Inhibition (%) is calculated in the same manner as in previous assays.
# [3] = 200 μM peptide (head of Table IX)
inhibition at 200 µM (Cathepsin G; [3]),IC50 (C1s),IC50 (Factor D),inhibition at 40 µM (Thrombin),"Degree of inflammation, mean score, protease inhibitor only (complement activation)",Elastase Inhibition (HUMAN SPUTUM ELASTASE),"Cathepsin G % inhibition (Cathepsin G; 100 μM peptide (Tables VI, VIII))",Cathepsin G Inhibition (Cathepsin G; [3]),Plasmin % inhibition (Plasmin),Substance,"% inhibition, classical pathway (CP) [1]","% inhibition, alternative pathway (AP) [2]","Degree of inflammation, mean score, antibody plus protease inhibitor (complement activation; guinea pig RPAR, intradermal anti-bovine serum albumin plus peptide, antibody only mean score 3)"
28%,39 µM,145 µM,50%,0,–,–,–,–,AGRSLNPNRVTFKANRPFLVFI [Peptide 7],–,–,–
–,–,–,–,0,–,–,–,–,GVRGPRVVERVTFKANRPFLVFI-OH [Peptide 13],75%,61%,1
–,–,–,–,–,0%,0%,0%,67%,LRYNKPFILVLFETPGNSLVFLGRISNPATK [Peptide 23],–,–,–
